{"source": "patent US7655414B2", "about": "“Determination of responders to chemotherapy” (Hoffman La-Roche Inc., priority 2005, dated 2010)", "key": {"[1]": {"tested_on": "non-small-cell lung cancer (NSCLC)", "conditions": "single-agent erlotinib, second- or third-line therapy; placebo 4.7 months; statistically significant improvement; cited from earlier work"}, "[2]": {"tested_on": "non-small-cell lung cancer (NSCLC)", "experiment": "Clinical study BO16411: Tarceva plus gemcitabine/cisplatin versus placebo plus gemcitabine/cisplatin, with pMAPK/pAKT IHC biomarker subset", "format": "in vivo, human", "procedure": "Biomarker analyses were performed on a sample subset of 141 patients, for which formalin-fixed paraffin embedded (FFPE) tissue blocks from initial diagnosis had been received.\nOne pathologist evaluated all immunostainings. The nuclear staining intensity (pAKT, pMAPK) was estimated by visual inspection in a four step scale (0, 1, 2, 3). In addition to nuclear staining intensity, the percentage of positive cells, and the reason for analysis failure (i.e. lack of tumor cells in the tissue spot or lack of the tissue spot on the TMA slide) was recorded. Exploratory Statistical Analysis:\nThe basic statistics and interdependencies of the different markers were descriptively investigated. Methodological analyses comparing different measurement approaches, e.g. for IHC, were performed with regard to reliability and validity.\nThe p-values emerging from these analyses are not to be interpreted in a confirmative sense; they are to be seen as a special descriptive tool in order to guide the exploration towards an efficient candidate prediction rule. Markers were evaluated on a univariate level regarding their potential for prediction (e.g. search for cut-offs) of the clinical endpoints. Further multivariate techniques (e.g. Linear Discriminant Analysis, Multiple Logistic Regression, Principal Component Analysis with Rotation, Cluster Analysis, CART methodology) were employed in order to study combinations of markers. Biomarker and response correlations with clinical covariates were investigated. Candidate groupings derived from biomarkers were checked with time to event variables (Kaplan-Meier curves, Cox proportional hazard model, logrank test).\nThe patient subset with samples for biomarker analysis was compared to the overall study population regarding baseline patient characteristics and clinical outcome parameters.\nFor determining correlation between pMAPK expression and clincal outcome, cut-off values were established by descriptive statistical analysis: Franklin H-score was determined by combining staining intensity and percentage of stained tumor cells (pMAPK_hsco=(pMAPK_Nuclear_Staining+1)*pMAPK_Nuclear_Pos_Cells; range: 0-400). “Positive” pMAPK staining was defined by H-scores of =/>100, else the staining was “negative”.\n“Positive” pAKT staining was defined by H-scores of =/>300, else the staining was “negative”."}, "[3]": {"tested_on": "first-line NSCLC patients", "conditions": "erlotinib 150 mg/day plus gemcitabine and cisplatin compared with gemcitabine and cisplatin alone; cited from earlier work"}, "NSCLC": {"tested_on": "NSCLC", "conditions": "erlotinib plus carboplatin and paclitaxel; cited from earlier work"}}}
{"compound": "C#Cc1cccc(Nc2ncnc3cc(OCCOC)c(OCCOC)cc23)c1", "note": "[Tarceva®, N-(3-ethynylphenyl)-6,7-bis(2-methoxyethoxy) quinazolin-4-amine]", "values": [{"measurement": "Survival", "setting": "[1]", "result": 6.7, "unit": "months"}, {"measurement": "HR, benefit from chemotherapy/Tarceva combo", "setting": "[2]; \"Positive pMAPK\" patients (H-score =/>100), p: 0.0516", "result": 0.500}, {"measurement": "Hazard Ratio, time to progression/death", "setting": "[2]; COX model without covariates, pAKT1 data set, trtgr only", "result": 1.269}, {"measurement": "Hazard Ratio, time to progression/death", "setting": "[2]; COX model without covariates, pMAPK data set, trtgr only", "result": 1.320}, {"measurement": "Hazard Ratio, time to progression/death", "setting": "[2]; COX model, trtgr in patients with pAKT1 H-Score ≧ 300", "result": 1.262}, {"measurement": "Hazard Ratio, time to progression/death", "setting": "[2]; COX model, trtgr in patients with pMAPK H-Score < 100", "result": 1.634}, {"measurement": "Hazard Ratio, time to progression/death", "setting": "[2]; COX model, trtgr in patients with pMAPK H-Score ≧ 100", "result": 0.773}, {"measurement": "Responders (%)", "setting": "[2]; Main clinical population, Tarceva + gemcitabine/cisplatin arm (N = 396)", "result": 42.4, "unit": "%"}, {"measurement": "Responders (%)", "setting": "[2]; Patient subset with IHC/FISH biomarker data, Tarceva + gemcitabine/cisplatin arm (N = 46)", "result": 43.5, "unit": "%"}, {"measurement": "Benefit on primary (survival duration) and secondary endpoints", "setting": "[3]", "result": "no demonstrable benefit"}, {"measurement": "Outcome compared with TALENT (no benefit of adding erlotinib)", "setting": "NSCLC", "result": "Identical results"}]}
